# Source: PubChem BioAssay AID493010 (Sanford-Burnham Center for Chemical Genomics, 2011)
# Tested on: 1x PBS pH 7.4 stability, LC/MS/MS, 48 h RT
# Test: percent parent left in PBS – biochemical, 1x PBS, pH 7.4, ADME assay (AID 493010)
# Conditions: stronger effect = lower value
row,percent remaining,SMILES
1,108%,CC(C)(C)c1ccc(C(=O)Nc2cc(Cl)c(Br)cc2C(=O)O)cc1
2,124%,CC(C)(C)c1ccc(C(=O)Nc2cc(Cl)c(Cl)cc2C(=O)O)cc1
3,27%,COc1ccc(C2CC(c3ccccc3)=NN2c2ccc(S(N)(=O)=O)cc2)cc1 (centres undefined)
4,10.6%,COc1cccc(C2=NN(c3ccc(S(N)(=O)=O)cc3)C(c3ccc(Br)cc3)C2)c1 (centres undefined)
